{
  "source": "ChEMBL document CHEMBL4177708",
  "about": "“N-Arylsulfonylsubstituted-1H indole derivatives as small molecule dual inhibitors of signal transducer and activator of transcription 3 (STAT3) and tubulin” (Bioorg Med Chem, 2018)",
  "key": {"[1]": {"biological_target": "Signal transducer and activator of transcription 3 (Homo sapiens) (UniProt P40763)", "sequence (P40763 whole entry)": "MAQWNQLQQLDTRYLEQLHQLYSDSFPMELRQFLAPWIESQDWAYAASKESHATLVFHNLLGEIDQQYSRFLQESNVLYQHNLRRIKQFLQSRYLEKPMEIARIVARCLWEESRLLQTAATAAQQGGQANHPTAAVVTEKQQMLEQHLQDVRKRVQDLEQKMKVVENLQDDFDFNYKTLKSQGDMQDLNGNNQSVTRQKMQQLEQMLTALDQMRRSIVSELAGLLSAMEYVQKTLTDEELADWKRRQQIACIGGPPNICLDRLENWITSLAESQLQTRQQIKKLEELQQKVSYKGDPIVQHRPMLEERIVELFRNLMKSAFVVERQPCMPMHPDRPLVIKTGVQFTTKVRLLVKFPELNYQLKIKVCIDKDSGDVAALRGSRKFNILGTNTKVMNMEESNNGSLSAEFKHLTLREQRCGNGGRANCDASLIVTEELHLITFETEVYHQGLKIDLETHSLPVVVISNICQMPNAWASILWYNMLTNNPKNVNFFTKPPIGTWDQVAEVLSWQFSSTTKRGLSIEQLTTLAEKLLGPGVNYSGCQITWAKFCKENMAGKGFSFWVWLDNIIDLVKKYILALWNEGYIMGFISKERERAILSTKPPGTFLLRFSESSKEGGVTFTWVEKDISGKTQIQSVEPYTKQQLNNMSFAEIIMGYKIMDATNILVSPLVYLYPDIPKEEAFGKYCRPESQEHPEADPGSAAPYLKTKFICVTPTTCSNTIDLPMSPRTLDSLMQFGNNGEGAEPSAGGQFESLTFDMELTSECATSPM", "assay": "Inhibition of STAT3 phosphorylation at Tyr-705 residue in human MDA-MB-231 cells after 12 hrs by Western blot analysis", "type": "cell-based"}, "[2]": {"biological_target": "Signal transducer and activator of transcription 3 (Homo sapiens) (UniProt P40763)", "assay": "Inhibition of IL-6-stimulated STAT3 phosphorylation at Tyr-705 residue in human MDA-MB-231 cells at 1 to 4 uM preincubated for 2 hrs followed by IL-6 stimulation measured after 30 mins by Western blot analysis", "type": "cell-based"}, "[3]": {"assay": "Solubility of the compound in 0.1% DMSO", "type": "physicochemical"}, "[4]": {"biological_target": "Signal transducer and activator of transcription 3 (Homo sapiens) (UniProt P40763)", "assay": "Inhibition of STAT3 phosphorylation at Tyr-705 residue in human MDA-MB-231 cells at 8 to 10 uM after 12 hrs by Western blot analysis", "type": "cell-based"}, "A549 [5]": {"system": "A549", "assay": "[…] of beta-tubulin polymerization in human A549 cells at 1 uM after 12 to 24 hrs by DAPI staining based confocal microscopic method", "type": "cell-based"}, "A549 [6]": {"system": "A549", "assay": "Inhibition of beta-tubulin polymerization in human A549 cells at 1 uM after 12 to 24 hrs by DAPI staining based confocal microscopic method", "type": "cell-based"}},
  "note": "Activity calls are given as the source filed them. The rule behind the calls is not given here.",
  "data": [
    {"smiles": "COc1ccc(S(=O)(=O)n2ccc3cccc(-c4ccc(C#N)c(F)c4)c32)cc1", "values": [
      {"measurement": "inhibition", "setting": "[1]", "value": "Dose-dependent effect"},
      {"measurement": "inhibition", "setting": "[2]", "value": "Active"}
    ]},
    {"smiles": "COc1ccc(S(=O)(=O)n2cc(Cl)c3cccc(-c4ccc(Cl)cc4)c32)cc1", "values": [
      {"measurement": "solubility", "setting": "[3]", "value": "Insoluble"}
    ]},
    {"smiles": "O=C(C1=Cc2cc(Br)ccc2S1(=O)=O)N1CCCCC1", "values": [
      {"measurement": "inhibition", "setting": "[4]", "value": "Active"}
    ]},
    {"smiles": "COc1ccc(S(=O)(=O)n2ccc3cccc(Nc4ccc(C#N)c(F)c4)c32)cc1", "values": [
      {"measurement": "inhibition", "setting": "[1]", "value": "Dose-dependent effect"}
    ]},
    {"smiles": "CC(=O)O[C@H]1C(=O)[C@@]2(C)[C@H]([C@H](OC(=O)c3ccccc3)[C@]3(O)C[C@H](OC(=O)[C@H](O)[C@@H](NC(=O)c4ccccc4)c4ccccc4)C(C)=C1C3(C)C)[C@]1(OC(C)=O)CO[C@@H]1C[C@@H]2O", "values": [
      {"measurement": "Activity", "setting": "A549 [5]", "value": "Active"}
    ]},
    {"smiles": "COc1cc2c(c(OC)c1OC)-c1ccc(OC)c(=O)cc1[C@@H](NC(C)=O)CC2", "values": [
      {"measurement": "inhibition", "setting": "A549 [6]", "value": "Active"}
    ]},
    {"smiles": "COc1ccc(S(=O)(=O)n2ccc3cccc(-c4ccc(S(C)(=O)=O)cc4)c32)cc1", "values": [
      {"measurement": "inhibition", "setting": "[1]", "value": "Dose-dependent effect"}
    ]}
  ]
}
